Here are results for six compounds from patent US8227205B2 (priority 2007, dated 2012).

Structures are written as SMILES.

Type in all cases: cell-based
One series deals with Jurkat cells. As to the kind of experiment: CytoTox-Glo live and dead cell luminescence assay. Conditions: Jurkat cells, 10,000 cells/well, 6 hours, FIG. 5/FIG. 7. How it is done: Ionomycin (a calcium ionophore which affects calcium flux across cell membranes, and therefore a model necrosis inducing agent at high concentrations) was two fold serially diluted from 100 μM in RPMI 1640+10% FBS in 50 μL volumes. Jurkat cells were added to 10,000 cells/well in a 50 μL volume. The plate was shaken briefly using an orbital shaker and then incubated for 6 hours at 37° C. CytoTox-Glo Reagent was prepared as above and added to each well in a equal volume (100 μL) per well. The plate was incubated at room temperature for 15 minutes and the dead cell signal measured using a BMG PolarStar. Digitonin (20 mg/mL in DMSO) was diluted to 300 μg/mL in CytoTox-Glo buffer and added in 20 μL volumes per well to facilitate complete cellular lysis. Luminescence was measured after 15 minutes of incubation at room temperature.
The luminescent signal collected after lysis was adjusted to reflect the “live cell” contribution by subtracting the initial dead cell signal. […]
Staurosporine (multiple mechanism apoptosis inducer) was two fold serially diluted from 20 μM in RPMI 1640+10% FBS in a microwell plate in 50 μL, volumes. […] The plate was incubated at room temperature for 15 minutes and the dead cell signal measured using a BMG PolarStar. […] Luminescence was measured after 15 minutes of incubation at room temperature. […]

In a further series the test system is K562cells. The series is described as follows: CytoTox-Glo dual measurement of cell viability and cytotoxicity (dead cell luminescence, then digitonin lysis, subtractive live cell signal). Conditions: K562 cells, 5,000 cells/well, 24 hours, two-fold serial dilution from 10 μM, FIG. 11A. How it is done:
(§1) Campothecin was two-fold serially-diluted in RPMI 1640+10% FBS medium from 10 μM and added in 50 μL volumes. The cells were incubated at 37° C., 5% CO2 for 24 hours. CytoTox-Glo reagent was prepared as described above and added to each well in an equal volume (100 μL). After 15 minutes of incubation, the dead cell signal was measured. Digitonin (20 mg/mL in DMSO) was diluted in CytoTox-Glo buffer and added in 20 μL volumes to each well to facilitate complete cell lysis. Luminescence was measured after 15 minutes of incubation at room temperature.
The luminescent signal collected after lysis was adjusted to reflect the “live cell” contribution by subtracting the initial dead cell signal. The data were plotted as the non-viable and viable signals versus the concentration of campothecin (FIG. 11A). […] If only viability was measured, one might conclude that the compound was substantially cytotoxic. If only cytotoxicity was measured, one might conclude that the compound was not very potent. Either interpretation would be faulty.

The next series concerns HeLa cells. Described as above. Particulars: HeLa cells, 10,000 cells/well, 24 hours, FIG. 11B/11C. The method, then: In FIG. 11B, HeLa cells were seeded at a 10,000 cells/well in DMEM+10% FBS in 50 μl volumes and incubated overnight at 37° C. in 5% CO2. Nocodazole was two-fold serially diluted in DMEM+10% FBS in a separate plate from 2 μM and added in 50 μL it volumes (highest final dosage is 1,000 nM). The cells were allowed to incubate with the compound for 24 hours. CytoTox-Glo Reagent was prepared as above and added to each well in an equal volume (100 μL). After 15 minutes of incubation, the dead cell signal was collected. Digitonin (20 mg/mL in DMSO) was diluted in CytoTox-Glo buffer and added in 20 μL volumes to each well to facilitate complete cell lysis. Luminescence was measured after 15 minutes of incubation at room temperature.
The luminescent signal collected after lysis was adjusted to reflect the “live cell” contribution by subtracting the initial dead cell signal. The data were plotted as the non-viable and viable signals versus the concentration of nocodazole.
In FIG. 11C, HeLa cells were seeded at a 10,000 cells/well in DMEM+10% FBS in 50 μL volumes and incubated overnight at 37° C. in 5% CO2. Colchicine was two-fold serially diluted in DMEM+10% FBS in a separate plate from 1,000 nM and added in 50 μL volumes (highest final dosage was 500 nM). The cells were allowed to incubate with the compound for 24 hours. […] Luminescence was measured after 15 minutes of incubation at room temperature. […]

Another series deals with DU-145 cells. The series is described as follows: CytoTox-Glo live and dead cell luminescence assay. Conditions: DU-145 cells, 5,000 cells/well, 48 hours, FIG. 10A. How it is done: as §1, with “DU-145 cells were seeded at a density of 5,000 cells/well in 50 μL of MEM+10% FBS and allowed to attach overnight. Epoxomicin (a proteasome inhibitor)” for “Campothecin”, “serially diluted from 5 μM” for “two-fold serially-diluted”, “MEM+10%” for “RPMI 1640+10%”, “FBS” for “FBS medium from 10 μM”, “with the compound” for “at 37° C., 5% CO2”, “48” for “24”
The luminescent signal collected after lysis was adjusted to reflect the “live cell” contribution by subtracting the initial dead cell signal. The data were plotted as the non-viable and viable signals versus the concentration of epoxomicin (FIG. 10A). […] The data also represents yet another toxin and mechanistic form of cell death.

Take `CN[C@@H]1C[C@H]2O[C@@](C)([C@@H]1OC)n1c3ccccc3c3c4c(c5c6ccccc6n2c5c31)C(=O)NC4` [Staurosporine]: the “dead and live cell signals versus the concentration of compound” value in the series with Jurkat cells was “live and dead cells were inversely complimentary”.

Turning to `CC[C@@]1(O)C(=O)OCc2c1cc1n(c2=O)Cc2cc3ccccc3nc2-1` [campothecin, Campothecin], in the series with K562cells, the “non-viable and viable signals versus the concentration of compound (viability and cytotoxicity)” value was “early cytotoxicity because of cell-cycle arrest”.

With `COC(=O)Nc1nc2ccc(C(=O)c3cccs3)cc2[nH]1` [nocodazole, Nocodazole], the “non-viable and viable signals versus the concentration of compound (viability and cytotoxicity)” value in the series on HeLa cells is “viability and cytotoxicity are ratiometric”.

In the case of `C[C@H](CCC(=O)O)C[C@H](C)C[C@H](C)C(=O)/C=C(\O)[C@H](C)C[C@H](C)C/C=C/[C@@H](C)[C@@H](O)[C@@H](C)[C@@H](O)C[C@@H]1CC[C@@](C)([C@H]2CC[C@@](C)([C@@H](C)O)O2)O1` [ionomycin, Ionomycin], the “dead and live cell signals versus the concentration of compound” value in the series with Jurkat cells is “live and dead cells were inversely complimentary”.

On to `CC[C@H](C)[C@H](NC(=O)[C@H]([C@@H](C)CC)N(C)C(C)=O)C(=O)N[C@H](C(=O)N[C@@H](CC(C)C)C(=O)[C@@]1(C)CO1)[C@@H](C)O` [epoxomicin, Epoxomicin], for which, in the series on DU-145 cells, the “non-viable and viable signals versus the concentration of compound” value was “viable and non-viable cells were inversely complimentary”.

Take `COc1cc2c(c(OC)c1OC)-c1ccc(OC)c(=O)cc1[C@@H](NC(C)=O)CC2` [colchicine, Colchicine]: the “non-viable and viable signals versus the concentration of compound (viability and cytotoxicity)” value in the series on HeLa cells is reported as “viability is reduced because of the cytotoxicity of the compound”.
